Source: patent publication US7576059B2, “Peptide derivatives” (Novo Nordisk A/S, priority 1995, dated 2009)
Residues, ends and D or L forms follow the SMILES beside them.

Assay: Determination of lipophilicity relative to human insulin (k′rel) by RP-HPLC
Type: physicochemical
Conditions: pH 7.3
Protocol: The lipophilicity of peptides and peptide derivatives relative to human insulin, k′rel, was measured on a LiChrosorb RP18 (5 μm, 4×250 mm) HPLC column by isocratic elution at 40° C. using mixtures of A) 0.1 M sodium phosphate buffer, pH 7.3, containing 10% acetonitrile, and B) 50% acetonitrile in water as eluents. The elution was monitored by following the UV absorption of the eluate at 214 nm. Void time, t0, was found by injecting 0.1 mM sodium nitrate. Retention time for human insulin, tinsulin, was adjusted to at least 2t0 by varying the ratio between the A and B solutions. k′rel=(tderivative−t0)/(tinsulin−t0).

| Compound | lipophilicity relative to human insulin, k′rel | lipophilicity relative to human insulin, k′rel (LiChrosorb RP18 HPLC, isocratic, 40° C., k′rel=(tderivative−t0)/(tinsulin−t0)) |
| --- | --- | --- |
| CCCC[C@H](NC=O)C(=O)N[C@@H](CC(C)C)C(=O)N[C@@H](Cc1ccccc1)C(=O)N[C@@H](CCCC)C(=O)N[C@@H](Cc1ccc(O)cc1)C(=O)N[C@@H](CCCCN)C(=O)O [For-Nle-Leu-Phe-Nle-Tyr-Lys-OH] (HELM PEPTIDE1{[O=C[*:2]].[Nle].L.F.[Nle].Y.K}$$$$V2.0) | 2.3 | – |
| CC(C)C[C@H](NC(=O)[C@H](Cc1ccccc1)NC(=O)CNC(=O)[C@@H](C)NC(=O)[C@@H](N)Cc1ccc(O)cc1)C(=O)N[C@@H](CCCCN)C(=O)O [H-Tyr-D-Ala-Gly-Phe-Leu-Lys-OH] (HELM PEPTIDE1{Y.[dA].G.F.L.K}$$$$V2.0) | – | 3.0×10^−3 |
